# In publication PMC4757451 (Biochemistry, 2015):
# Legend:
# CYP3A4 [1] = target: T1, CYP3A4 (Homo sapiens, UniProt P08684, S18F); test: Product formation; conditions: for Product formation rate after second substrate binding: intermediate with two molecules bound ([20]/[02]); for CBZ Product Rate / PGS Product Rate: mixed substrate global fit
# CYP3A4 [2] = target: T1, CYP3A4; test: Steady-state NADPH oxidation by CYP3A4 Nanodiscs with CPR; format: biochemical
Structure (SMILES),"Product formation rate with only one substrate molecule bound (CYP3A4 [1]; first binding intermediate, fitted parameters, in words)","Product formation rate after third binding event (CYP3A4 [1]; intermediate with three molecules bound ([03]), pure substrate) [min⁻¹]",Product formation rate after second substrate binding (CYP3A4 [1]; pure substrate) [min⁻¹],CBZ Product Rate (CYP3A4 [1]; mixed intermediate [11]),CBZ product formation rate (CYP3A4 [1]; mixed intermediate [12]) [min⁻¹],CBZ Product Rate (CYP3A4 [1]; mixed intermediate [12]),CBZ product formation rate (CYP3A4 [1]; mixed intermediate [21]) [min⁻¹],CBZ Product Rate (CYP3A4 [1]; mixed intermediate [21]),"PGS product formation rate in CBZ/PGS mixture at high concentration (CYP3A4 [1]; CBZ/PGS 12:1 mixture, 60 µM and higher PGS) [min⁻¹]","Maximum PGS product formation rate in CBZ/PGS mixture (CYP3A4 [1]; CBZ/PGS 12:1 mixture, reached at 18–20 µM PGS) [min⁻¹]",Factor by which PGS hydroxylation in [11] is slower than in [20] (CYP3A4 [1]; [11] versus [20]),"Hill coefficient nH (CYP3A4 [1]; fitting with the Hill equation, pure PGS)",Rate of PGS hydroxylation (CYP3A4 [1]; mixed intermediate [11]) [min⁻¹],PGS Product Rate (CYP3A4 [1]; mixed intermediate [11]),PGS Product Rate (CYP3A4 [1]; mixed intermediate [12]),PGS Product Rate (CYP3A4 [1]; mixed intermediate [21]),"Maximum rate of NADPH consumption, pure substrate (CYP3A4 [2]; at 30 µM PGS, at 200 µM CBZ) [min⁻¹]","NADPH consumption rate (CYP3A4 [2]; intermediate [20], pure PGS) [min⁻¹]","Rate of NADPH consumption at higher PGS concentrations (CYP3A4 [2]; pure PGS, above 30 µM, decreases down to this value) [min⁻¹]"
"NC(=O)N1c2ccccc2C=Cc2ccccc21 [CBZ, carbamazepine]",negligible,3,1.7,0 (0.01) nmol/nmol/min,4.5,4.5 (2.0 – 6.0) nmol/nmol/min,11,11 (9.8 – 12.2) nmol/nmol/min,–,–,–,–,–,–,–,–,–,–,–
"CC(=O)[C@H]1CC[C@H]2[C@@H]3CCC4=CC(=O)CC[C@]4(C)[C@H]3CC[C@]12C [PGS, progesterone]",–,–,14.7,–,–,–,–,–,4,5,4,1.7,4,4 (3.7 – 4.2) nmol/nmol/min,0 (0.01) nmol/nmol/min,0 (0.02) nmol/nmol/min,240,388,160
